Reference: patent US20040045805A1, “Novel process for preparing and harvesting crystalline particles” (priority 2000, published 2004)

Experiment: Malvern laser diffraction particle sizing
Format: physicochemical
Settings: Malvern Mastersizer X; dispersant iso octane/lecithin 0.05% w/w; sonicated 3 minutes; one analysis per sample
Protocol: Particles of Examples 1A and 1B were analysed using Malvern laser diffraction particle sizing. Instrument: Malvern Mastersizer X Lens: 45 mm Reverse Fourier Analysis: 0607 presentation code Dispersant: Iso Octane/Lecithin 0.05% w/w Pre dispersion: Sonicate for 3 minutes Obscuration: 10% to 16% One analysis per sample was carried out. The median particle size (D50), particle size at 90% undersize (D90) and particle size at 10% undersize (D10) were used as responses to characterise the medium, course, and fine particles.

Row | SMILES | D10 (particle size at 10% undersize) | D50 (median particle size) | D90 (particle size at 90% undersize)
1 | CCC(=O)O[C@]1(C(=O)SCF)[C@H](C)C[C@H]2[C@@H]3C[C@H](F)C4=CC(=O)C=C[C@]4(C)[C@@]3(F)[C@@H](O)C[C@@]21C [Example 1B, fluticasone propionate] | 1.77 μm | 3.65 μm | 7.24 μm
2 | CCC(=O)O[C@]1(C(=O)SCF)[C@H](C)C[C@H]2[C@@H]3C[C@H](F)C4=CC(=O)C=C[C@]4(C)[C@@]3(F)[C@@H](O)C[C@@]21C [Example 1A, fluticasone propionate] | 1.01 μm | 2.68 μm | 5.93 μm
